Source: paper PMC8139662 (Journal of Virology, 2021)
pEC50: −log10 of the molar value. “And” between values parts separate entries of the source, which are not always exact repeats. Equal entries are not always repeated. Where two headings read alike, the source gives them in different places.

Tests used:
SARS-CoV-2 USA-WA1/2020 [1] = format: cell-based; details: for SARS-CoV-2 infectious titers in apical washes: 10 μM basolateral, washes every 12 h up to 72 h; for number of infected (N-expressing) cells: 10 μM, 72-h endpoint
SARS-CoV-2 USA-WA1/2020 [2] = format: cell-based; details: for protection from ring syncytium formation (CPE): at 0.33 μM and above; for protection from ring syncytium formation (CPE) / overall number of infected foci: microscopy; for protection from virus-induced CPE: at 1 μM (PF-00835231: 1 μM and above); for overall number of infected foci: A549+ACE2, drug treatment
[3] = tested on: panel of diverse coronavirus 3CL^pro; details: alpha-, beta- and gammacoronavirus 3CLpro panel; cited from earlier work
[4] = tested on: polarized human airway epithelial cultures (HAEC)
SARS-CoV-2 [5] = details: PF-00835231 with remdesivir, in vitro; cited from earlier work
BCi-NS1.1 cells = details: 48 h, dose range up to 10 μM
SARS-CoV-2 [6] = details: Vero E6 cells; cited from earlier work
SARS-CoV-2 USA-WA1/2020 [7] = experiment: Time-of-drug-addition assay in A549+ACE2 cells; format: cell-based; details: A549+ACE2, USA-WA1/2020
[8] = tested on: SARS-CoV-2 USA/NYU-VC-003/2020; format: cell-based
in vitro = details: human
COVID-19 patients = details: patients with more advanced infection, i.v.; cited from earlier work
[9] = PF-00835231 versus GC-376 set (Table 2)

SMILES: COc1cccc2[nH]c(C(=O)N[C@@H](CC(C)C)C(=O)N[C@@H](C[C@@H]3CCNC3=O)C(=O)CO)cc12 [PF-00835231]
- SARS-CoV-2 infectious titers in apical washes (SARS-CoV-2 USA-WA1/2020 [1]): viral titers below the limit of detection at most time points
- number of infected (N-expressing) cells (SARS-CoV-2 USA-WA1/2020 [1]): the number of infected cells was significantly reduced
- change in antiviral efficacy when blocking MDR1 (SARS-CoV-2 USA-WA1/2020 [1]; […], HAEC, 0.025 or 0.5 μM PF-00835231): no changes in antiviral efficacy when blocking MDR1 activity
- change in antiviral efficacy when blocking MDR1 (SARS-CoV-2 USA-WA1/2020 [2]): no changes in antiviral efficacy when blocking MDR1 activity
- protection from ring syncytium formation (CPE) (SARS-CoV-2 USA-WA1/2020 [2]; A549+ACE2): fully protected
- protection from virus-induced CPE (SARS-CoV-2 USA-WA1/2020 [2]): fully protected
- overall number of infected foci (SARS-CoV-2 USA-WA1/2020 [2]): decreased the overall number of infected foci
- inhibition of 3CLpro [3]: potent inhibition
- effect on morphology of HAEC (histology) [4]: Neither drug caused measurable adverse effects on the morphology of the cultures
- combination effect with remdesivir in inhibiting SARS-CoV-2 (SARS-CoV-2 [5]): significant synergistic effects
- ATP levels (cell viability) (BCi-NS1.1 cells): did not detect a decrease in ATP
- pEC50 (SARS-CoV-2 [6]): 6.57
- antiviral activity against SARS-CoV-2 (SARS-CoV-2 [6]): high micromolar levels
- effect of inhibiting MDR1 function on antiviral efficacy (SARS-CoV-2 [6]): significantly increased antiviral efficacy
- minimum treatment dose that led to undetectable infection levels (SARS-CoV-2 USA-WA1/2020 [7]): 3 µM
- EC90 [8]: 591 nM and 1170 nM
- pEC50 [8, 9]: 6.49
- pEC50 ([8]; PF-00835231 versus remdesivir set (Table 1), n = 3): 6.74
- CC50 (A549^+ACE2 cells): > 10000 nM

SMILES: CCC(CC)COC(=O)[C@H](C)N[P@](=O)(OC[C@H]1O[C@@](C#N)(c2ccc3c(N)ncnn23)[C@H](O)[C@@H]1O)Oc1ccccc1 [remdesivir, reference compound]
- CC50 (in vitro): > 10000 nM
- SARS-CoV-2 infectious titers in apical washes (SARS-CoV-2 USA-WA1/2020 [1]): viral titers below the limit of detection at most time points
- number of infected (N-expressing) cells (SARS-CoV-2 USA-WA1/2020 [1]): the number of infected cells was significantly reduced
- protection from ring syncytium formation (CPE) (SARS-CoV-2 USA-WA1/2020 [2]; A549+ACE2): fully protected
- overall number of infected foci (SARS-CoV-2 USA-WA1/2020 [2]): decreased the overall number of infected foci
- patients with benefit (COVID-19 patients): 68%
- effect on morphology of HAEC (histology) [4]: Neither drug caused measurable adverse effects on the morphology of the cultures
- effect on transepithelial resistance (TEER) over time [4]: negatively impacted TEER over time, albeit not statistically significantly compared to untreated cultures
- ATP levels (cell viability) (BCi-NS1.1 cells): caused a reduction in ATP levels compared to carrier control, albeit not statistically significantly

SMILES: CC(C)C[C@H](NC(=O)OCc1ccccc1)C(=O)N[C@@H](CC1CCNC1=O)C(O)S(=O)(=O)[O-].[Na+] (stereo partly drawn) [GC-376, reference compound]
- EC90 (SARS-CoV-2 USA-WA1/2020 [2]): 4550 nM and 5250 nM
- number and size of viral foci (SARS-CoV-2 USA-WA1/2020 [2]; 1 μM, A549+ACE2): decreased the number and size of viral foci
- protection from virus-induced CPE (SARS-CoV-2 USA-WA1/2020 [2]): unable to protect cells from virus-induced CPE
- pEC50 (SARS-CoV-2 [6]): 6.05
- minimum treatment dose that led to undetectable infection levels (SARS-CoV-2 USA-WA1/2020 [7]): 10 µM
- EC90 [8]: 2730 nM
- pEC50 [8, 9]: 6.28
- CC50 (A549^+ACE2 cells): > 10000 nM
